Assay [1] concerns the target T1, Kelch-like ECH-associated protein 1/Nuclear factor erythroid 2-related factor 2 (Mus musculus) (UniProt Q60795+Q9Z2X8). Description: Inhibition of Keap1/Nrf2 protein-protein interaction in mouse RAW264.7 cells assessed as increase in NQO1 levels up to 10 uM after 8 hrs by Western blot analysis. Type of assay: cell-based. Background: Immunoblotting shows a protein as a band on a membrane.

In assay [2] the target is T1, Kelch-like ECH-associated protein 1/Nuclear factor erythroid 2-related factor 2 (Mus musculus). The experiment in a line: Inhibition of Keap1/Nrf2 protein-protein interaction in mouse RAW264.7 cells assessed as increase in HO-1 levels up to 10 uM after 8 hrs by Western blot analysis. In kind it is cell-based.
Assay [3] shares this target. The experiment in a line: Inhibition of Keap1/Nrf2 protein-protein interaction in mouse RAW264.7 cells assessed as increase in GCLM levels up to 10 uM after 8 hrs by Western blot analysis. Type of assay: cell-based.
Assay [4] concerns RAW264.7. The experiment in a line: Upregulation of SOD protein expression in mouse RAW264.7 cells at 1 uM after 8 hrs by Western blot analysis. In kind it is functional, cell-based.
The test system of assay [5] is RAW264.7. Description: Upregulation of GSH-Px protein expression in mouse RAW264.7 cells at 1 uM after 8 hrs by Western blot analysis. In kind it is functional, cell-based.
Assay [6] has as its system RAW264.7. Description: Inhibition of LPS-induced increase in ROS levels in mouse RAW264.7 cells up to 10 uM preincubated for 10 hrs followed by LPS stimulation for 12 hrs by cH2DCF-DA dye-based fluorescent microscopy. Type of assay: functional, cell-based.
Assay [7] concerns RAW264.7. The experiment in a line: Anti-inflammatory activity in mouse RAW264.7 cells assessed as restoration of LPS-induced decrease in SOD activity at 10 uM. In kind it is functional, cell-based.
Assay [8] concerns RAW264.7. The experiment in a line: Anti-inflammatory activity in mouse RAW264.7 cells assessed restoration of LPS-induced decrease in GSH-Px activity at 10 uM. In kind it is functional, cell-based.
Assay [9] relates to RAW264.7. The experiment in a line: Anti-inflammatory activity in mouse RAW264.7 cells assessed as inhibition of LPS-induced IL-1beta production up to 10 uM pretreated for 10 hrs followed by LPS stimulation for 12 hrs by ELISA. In kind it is functional, cell-based. (ELISA stands for enzyme-linked immunosorbent assay.)
Assay [10] concerns RAW264.7. Description: Anti-inflammatory activity in mouse RAW264.7 cells assessed as inhibition of LPS-induced TNFalpha production up to 10 uM pretreated for 10 hrs followed by LPS stimulation for 12 hrs by ELISA. Type of assay: functional, cell-based.
For assay [11], the system named is RAW264.7. Description: Anti-inflammatory activity in mouse RAW264.7 cells assessed as reduction in LPS-induced NO production by measuring NO level at 10 uM preincubated for 10 hrs followed by LPS stimulation for 12 hrs by Griess assay (reference value: 50 uM). Type of assay: functional. (Griess reagent forms a coloured azo dye with nitrite.)
Assay [12] has as its system RAW264.7. The experiment in a line: Anti-inflammatory activity in mouse RAW264.7 cells assessed inhibition of LPS-induced increase in MPO activity at 10 uM. In kind it is functional, cell-based.
Assay [13] has as its target T1, Kelch-like ECH-associated protein 1/Nuclear factor erythroid 2-related factor 2 (Mus musculus). The experiment in a line: Inhibition of Keap1/Nrf2 protein-protein interaction in mouse RAW264.7 cells assessed as upregulation of NQO1 mRNA expression at 1 uM after 10 hrs by quantitative real-time-PCR analysis. Type of assay: cell-based.
Assay [14] has the same target. The experiment in a line: Inhibition of Keap1/Nrf2 protein-protein interaction in mouse RAW264.7 cells assessed as upregulation of HO1 mRNA expression at 1 uM after 10 hrs by quantitative real-time-PCR analysis. Type of assay: cell-based.
Assay [15] shares this target. Description: Inhibition of Keap1/Nrf2 protein-protein interaction in mouse RAW264.7 cells assessed as upregulation of GCLM mRNA expression at 1 uM after 10 hrs by quantitative real-time-PCR analysis. In kind it is cell-based.
The test system of assay [16] is RAW264.7. The following applies: Mus musculus, up to 10 µM.
Description: Anti-inflammatory activity in mouse RAW264.7 cells assessed as inhibition of LPS-induced IL-18 production up to 10 uM pretreated for 10 hrs followed by LPS stimulation for 12 hrs by ELISA
Assay [17] concerns the target T1, Kelch-like ECH-associated protein 1/Nuclear factor erythroid 2-related factor 2 (Mus musculus). Description: Inhibition of Keap1/Nrf2 protein-protein interaction in mouse RAW264.7 cells assessed as upregulation of NQO1 mRNA expression at 0.1 to 10 uM after 10 hrs by quantitative real-time-PCR analysis. In kind it is cell-based.
Assay [18] has the same target. Description: Inhibition of Keap1/Nrf2 protein-protein interaction in mouse RAW264.7 cells assessed as upregulation of HO-1 mRNA expression at 0.1 to 10 uM after 10 hrs by quantitative real-time-PCR analysis. Type of assay: cell-based.
Assay [19] has the same target. Description: Inhibition of Keap1/Nrf2 protein-protein interaction in mouse RAW264.7 cells assessed as upregulation of GCLM mRNA expression at 0.1 to 10 uM after 10 hrs by quantitative real-time-PCR analysis. In kind it is cell-based.

Active and inactive are the calls of the source. The rule behind the calls is not given here.

T1 sequence (Q60795 whole entry, looked up): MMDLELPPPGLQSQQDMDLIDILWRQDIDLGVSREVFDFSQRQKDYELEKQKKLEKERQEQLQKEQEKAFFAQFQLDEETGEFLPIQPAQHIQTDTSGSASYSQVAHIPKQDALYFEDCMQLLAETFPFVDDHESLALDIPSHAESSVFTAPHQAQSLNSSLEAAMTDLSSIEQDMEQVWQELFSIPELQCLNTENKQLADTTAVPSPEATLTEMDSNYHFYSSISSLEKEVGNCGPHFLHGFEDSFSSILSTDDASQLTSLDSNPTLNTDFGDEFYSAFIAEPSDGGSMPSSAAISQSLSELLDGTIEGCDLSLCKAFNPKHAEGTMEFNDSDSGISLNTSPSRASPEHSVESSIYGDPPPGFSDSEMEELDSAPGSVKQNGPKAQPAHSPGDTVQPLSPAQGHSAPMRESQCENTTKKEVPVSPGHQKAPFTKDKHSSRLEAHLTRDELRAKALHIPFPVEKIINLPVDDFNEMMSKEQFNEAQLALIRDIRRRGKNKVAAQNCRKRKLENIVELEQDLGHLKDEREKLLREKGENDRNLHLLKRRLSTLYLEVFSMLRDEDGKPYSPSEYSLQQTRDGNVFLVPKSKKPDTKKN
T1 sequence (Q9Z2X8 whole entry, looked up): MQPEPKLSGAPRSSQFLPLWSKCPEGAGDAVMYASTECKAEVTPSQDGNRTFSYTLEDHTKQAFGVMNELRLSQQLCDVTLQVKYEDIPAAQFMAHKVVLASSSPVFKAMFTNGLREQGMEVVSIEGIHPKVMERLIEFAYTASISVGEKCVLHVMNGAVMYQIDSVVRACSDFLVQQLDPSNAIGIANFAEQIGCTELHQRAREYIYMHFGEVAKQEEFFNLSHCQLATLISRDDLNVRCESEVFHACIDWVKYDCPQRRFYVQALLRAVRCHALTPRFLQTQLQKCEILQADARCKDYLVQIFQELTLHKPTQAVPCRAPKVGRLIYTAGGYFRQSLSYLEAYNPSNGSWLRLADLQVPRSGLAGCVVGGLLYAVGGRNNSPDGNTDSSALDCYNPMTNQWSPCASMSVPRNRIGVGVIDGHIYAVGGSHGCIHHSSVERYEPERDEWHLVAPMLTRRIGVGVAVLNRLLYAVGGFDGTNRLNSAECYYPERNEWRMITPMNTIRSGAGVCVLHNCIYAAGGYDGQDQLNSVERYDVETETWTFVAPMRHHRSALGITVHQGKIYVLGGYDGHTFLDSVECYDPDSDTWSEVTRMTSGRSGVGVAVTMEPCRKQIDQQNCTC

Consider `CC(C)C[C@@H]1NC(=O)[C@H](Cc2ccccc2)NC(=O)[C@H](CCC(=O)O)NC(=O)CNC(=O)[C@H]([C@@H](C)O)NC(=O)[C@H](CCC(=O)O)NC(=O)[C@@H]2CCCN2C(=O)[C@H](CC(=O)O)NC(=O)[C@H](CC(C)C)NC(=O)[C@H](CCC(N)=O)NC(=O)CNC1=O`, for which the inhibition result in assay [1], in assay [2], in assay [3], in [6], in assay [9] and in [10] was “Active” in each case. For the same compound, the inhibition result in assay [12], in assay [13], in [14], in assay [15] and in assay [16] was “Active” each time. Further, the outcome in [4], in assay [5], in assay [7] and in [8] was Active. Also, in [11], the Activity came to 14 µM.
On to `CC(=O)NCC(=O)N[C@@H](CCC(N)=O)C(=O)N[C@@H](CC(C)C)C(=O)N[C@@H](CC(=O)O)C(=O)N1CCC[C@H]1C(=O)N[C@@H](CCC(=O)O)C(=O)N[C@H](C(=O)NCC(=O)N[C@@H](CCC(=O)O)C(=O)N[C@@H](Cc1ccccc1)C(=O)N[C@@H](CC(C)C)C(=O)O)[C@@H](C)O`, for which the inhibition entry in assay [17], in [18], in assay [19], in assay [1], in assay [2] and in assay [3] was “inactive” throughout.

For the origin of these results see ChEMBL document CHEMBL4138151, “Discovery of a head-to-tail cyclic peptide as the Keap1-Nrf2 protein-protein interaction inhibitor with high cell potency” (Eur J Med Chem, 2018).
